Assay results as given in publication PMC9238401, “Peptide Conjugates Derived from flg15, Pep13, and PIP1 That Are Active against Plant-Pathogenic Bacteria and Trigger Plant Defense Responses” (Applied and Environmental Microbiology, 2022).
Non-standard residues stand in square brackets, D forms with d. Residues, ends and D or L forms follow the SMILES beside them. *: point of attachment. Butyryl = CCCC(=O)*

Columns and labels:
[1] = system: Erwinia amylovora PMV6076; assay: In vitro growth inhibition (MIC); assay type: cell-based; settings: TSB, 25°C, 48 h, OD 600 nm (Bioscreen C), three replicates, experiment repeated twice; MIC = lowest concentration with no growth, given as range
Method: (§1) Peptide conjugates were tested for in vitro growth inhibition of the plant-pathogenic bacteria E. amylovora PMV6076, Xanthomonas arboricola pv. pruni CFBP5563, X. fragariae Xf349-9A, X. axonopodis pv. vesicatoria 2133-2, P. syringae pv. actinidiae Psa3700.1.1, and P. syringae pv. syringae EPS94 (Fig. 1, Table SA). The corresponding monomers (flg15, BP13, Pep13, PIP1, BP16, BP100, BP143, BP387, BP475, and KSL-W) were included for comparison.
(§2) The following plant-pathogenic bacterial strains were used: Erwinia amylovora PMV6076 (Institut National de la Recherche Agronomique, Angers, France), Pseudomonas syringae pv. syringae EPS94 (Institut de Tecnologia Agroalimentària, University of Girona, Spain), Xanthomonas axonopodis pv. vesicatoria 2133-2, X. axonopodis pv. vesicatoria Xav206 (Xav) (D. F. Ritchie, Department of Plant Pathology, North Carolina State University), Pseudomonas syringae pv. actinidiae Psa3700.1.1, Xanthomonas fragariae Xf349-9A (Instituto Valenciano de Investigaciones Agrarias, Valencia, Spain), and Xanthomonas arboricola pv. pruni CFBP5563 (Collection Française de Bactéries Associées aux Plantes, Angers, France). All bacteria except for X. fragariae were stored in Luria Bertani (LB) broth supplemented with glycerol (20%) and maintained at −80°C. For X. fragariae, medium B ([80]) was used instead of LB. E. amylovora, X. arboricola pv. pruni, P. syringae pv. syringae, and P. syringae pv. actinidiae were scraped from the agar medium after growing for 24 h at 25°C, and X. axonopodis pv. vesicatoria and X. fragariae, after growing for 48 h at 25°C. The cell material was suspended in sterile water to obtain a suspension of 10^8 CFU mL^−1.
(§3) Lyophilized peptides were solubilized in sterile Milli-Q water to a final concentration of 1 mM and filter-sterilized through a 0.22-μm pore filter. […] Then, 20 μL of each dilution were mixed in a microtiter plate well with 20 μL of the corresponding suspension of the bacterial indicator, 160 μL of Trypticase soy broth (TSB) (bioMérieux, France) to a total volume of 200 μL. Three replicates for each combination of strain, compound, and concentration were used. Microbial growth was determined by optical density measurement at 600 nm (Bioscreen C; Labsystem, Helsinki, Finland). Microplates were incubated at 25°C with 20 s of shaking before hourly absorbance measurement for 48 h. The experiment was repeated twice. The MIC was taken as the lowest compound concentration with no growth at the end of the experiment.

[2] = system: Pseudomonas syringae pv. actinidiae Psa3700.1.1; assay: In vitro growth inhibition (MIC); assay type: cell-based; settings: TSB, 25°C, 48 h, OD 600 nm (Bioscreen C), three replicates, experiment repeated twice; MIC given as range
Method: as §1, §2, §3

[3] = system: Pseudomonas syringae pv. syringae EPS94; assay: In vitro growth inhibition (MIC); assay type: cell-based; settings: TSB, 25°C, 48 h, OD 600 nm (Bioscreen C), three replicates, experiment repeated twice; MIC given as range
Method: as §1, §2, §3

[4] = system: Xanthomonas arboricola pv. pruni CFBP5563; assay: In vitro growth inhibition (MIC); assay type: cell-based; settings: TSB, 25°C, 48 h, OD 600 nm (Bioscreen C), three replicates, experiment repeated twice; MIC given as range
Method: as §1, §2, §3

[5] = system: Xanthomonas fragariae Xf349-9A; assay: In vitro growth inhibition (MIC); assay type: cell-based; settings: TSB, 25°C, 48 h, OD 600 nm (Bioscreen C), three replicates, experiment repeated twice; MIC given as range
Method: as §1, §2, §3

[6] = system: Xanthomonas axonopodis pv. vesicatoria 2133-2; settings: TSB, 25°C, 48 h, OD 600 nm (Bioscreen C), three replicates, experiment repeated twice; MIC given as range
Source text: The corresponding monomers (flg15, BP13, Pep13, PIP1, BP16, BP100, BP143, BP387, BP475, and KSL-W) were included for comparison.
as §2, §3

horse erythrocytes = settings: TRIS buffer pH 7.2, 1 h, 37°C, absorbance 540 nm, relative to melittin 100 μM, ± confidence interval (α = 0.05)
Method: The toxicity of peptide conjugates to eukaryotic cells was determined as the ability to lyse erythrocytes (Table SB).
The hemolytic activity of the compounds was evaluated by determining hemoglobin release from erythrocyte suspensions of horse blood (5% vol/vol) (Oxoid) as previously described ([45]). Blood was centrifuged at 6000g for 5 min, washed three times with TRIS buffer (10 mM TRIS, 150 mM NaCl, pH 7.2) and diluted 10 times. Compounds were solubilized in TRIS buffer at 750, 500, 300, and 100 μM and mixed with horse erythrocytes (1:1 vol/vol). The mixture was incubated with continuous shaking for 1 h at 37°C. Then, the tubes were centrifuged at 3500g for 10 min, 80-μL aliquots of the supernatant were transferred to 100-well microplates (Bioscreen) and diluted with 80 μL water, and the absorbance measured at 540 nm (Bioscreen). […] The percentage of hemolysis (H) was calculated using the equation H = 100 × ([Op − Ob]/[Om − Ob]), where Op is the density for a given compound concentration, Ob is that for the buffer, and Om is that for the melittin positive control.

tobacco leaves = assay: Effect of peptide infiltration on tobacco leaves (phytotoxicity); assay type: in vivo; settings: 100 μL infiltrated into mesophyll, lesion diameter 48 h after infiltration, at least three leaves; ± confidence interval (α = 0.05)
Method: Peptide conjugates were also assayed for their toxicity in tobacco leaves (Fig. 3, Table SC). After 48 h of infiltration, melittin caused a necrotic area of 0.70 and 2.17 cm in diameter at 50 and 250 μM, respectively. The monomers were not phytotoxic at those concentrations; all of them led to lesions of ≤1.2 cm at 250 μM. All peptide conjugates were also less phytotoxic than melittin, causing necrotic lesions between 0.26 and 1.67 cm in diameter at 250 μM. In particular, 15 of the 30 conjugates led to a necrotic area of <1 cm at this concentration. In general, sequences incorporating BP13 were among the most phytotoxic.
Peptide conjugates were evaluated for their effect on infiltration on tobacco leaves as described previously ([41]). Peptide solutions of 50, 150, and 250 μM were infiltrated (100 μL) into the mesophylls of fully expanded tobacco leaves. Infiltrations were carried out in a single leaf, and for each peptide and dose, at least three leaves randomly distributed in different plants were inoculated. Control infiltrations with water (negative control) or melittin (positive control) at the same molar concentration were performed. The appearance of symptoms on the leaves was followed for 48 h after infiltration and measured as lesion diameter.

[7] = HPLC retention time as indicator of relative hydrophobicity; assay type: physicochemical; settings: chromatographic, Kromasil 100 C18 (4.6 mm × 40 mm, 3 μm), linear gradient 2 to 100% B over 12 min, 1 mL/min; A 0.1% aqueous TFA, B 0.1% TFA in CH3CN; used as indicator of relative hydrophobicity
Method: The parameters related to the structure of the peptide conjugates (sequence, charge, hydrophobic ratio [HR], and HPLC retention time), as well as their physicochemical properties (grand average hydropathicity [GRAVY] and hydrophobic moment [<μH>]) obtained from the online programs ProtParam (Expasy server) and HeliQuest are included in Table 1.
Peptides were analyzed under standard analytical HPLC conditions. Method A: peptides were analyzed with a Dionex liquid chromatography instrument composed of a UV/Vis Dionex UVD170U detector, a P680 Dionex pump, an ASI-100 Dionex automatic injector, and Chromeleon 6.60 software. Detection was performed at a wavelength of 220 nm. Solvent A was 0.1% aqueous trifluoroacetic acid (TFA), and solvent B was 0.1% TFA in CH3CN. Analyses were carried out with a Kromasil 100 C18 (4.6 mm × 40 mm, 3 μm) column with a linear gradient of 2 to 100% B over 7 min at a flow rate of 1 mL/min. Method B: peptides were analyzed with a 1260 Infinity II liquid chromatography instrument (Agilent Technologies) composed of a diode array detector HS, a quaternary pump VL, a 1260 vial sampler, and OpenLab CDS ChemStation software. Analyses were carried out with a Kromasil 100 C18 (4.6 mm × 40 mm, 3 μm) column with a linear gradient of 2 to 100% B over 12 min at a flow rate of 1 mL/min.

Compound | MIC, Ea [1] [µM] | MIC, Psa [2] [µM] | MIC, Pss [3] [µM] | MIC, Xap [4] [µM] | MIC, Xf [5] [µM] | MIC, Xav [6] [µM] | Percent hemolysis at 50 μM (horse erythrocytes) [%] | Percent hemolysis at 150 μM (horse erythrocytes) [%] | Percent hemolysis at 250 μM (horse erythrocytes) [%] | Percent hemolysis at 375 μM (horse erythrocytes) [%] | Size of the lesions in infiltrated tobacco leaves at 50 μM (tobacco leaves) [cm] | Size of the lesions in infiltrated tobacco leaves at 150 μM (tobacco leaves) [cm] | Size of the lesions in infiltrated tobacco leaves at 250 μM (tobacco leaves) [cm] | tR (min), HPLC retention time (method B) [7] [min]
CCCC(=O)NCCCC[C@H](NC(=O)[C@H](CCCCN)NC(=O)[C@H](CC(C)C)NC(=O)[C@@H](NC(=O)[C@H](CCCCN)NC(=O)[C@H](CCCCN)NC(=O)[C@@H](Cc1ccccc1)NC(=O)[C@H](CC(C)C)NC(=O)[C@H](CCCCN)NC(=O)[C@H](CCCCN)NC(C)=O)[C@@H](C)CC)C(=O)N[C@@H](CC(C)C)C(=O)N[C@@H](Cc1ccc(O)cc1)C(=O)NCC(=O)N[C@H](C(=O)N[C@@H](Cc1c[nH]cn1)C(=O)N[C@H](C(=O)N[C@@H](Cc1c[nH]cn1)C(N)=O)[C@@H](C)O)[C@@H](C)CC [BP475-PIP1] (Ac-KKL[dF]KKILKK(Butyryl)LYGIHTH-NH2) | 3.1 to 6.2 | 1.6 to 3.1 | 6.2 to 12.5 | 0.8 to 1.6 | 1.6 to 3.1 | 3.1 to 6.2 | 9 ± 1.0 | 18 ± 1.4 | 26 ± 2.8 | 39 ± 2.0 | 0.47 ± 0.06 | 1.40 ± 0.00 | 1.67 ± 0.13 | 6.28
Ac-KKLFKKIK(COC3H7)KYL-RINSAKDDAAGLQIA-OH [BP387-flg15, peptide conjugate, lipopeptide BP387 at N-terminus, flg15 at C-terminus] | 25 to 50 | 6.2 to 12.5 | 3.1 to 6.2 | 1.6 to 3.1 | 6.2 to 12.5 | 3.1 to 6.2 | 3 ± 0.3 | 5 ± 0.9 | 7 ± 0.2 | 9 ± 2.5 | 0.23 ± 0.24 | 0.33 ± 0.35 | 0.93 ± 0.40 | 5.84
Ac-KKLfKKILKK(COC3H7)L-RINSAKDDAAGLQIA-OH [BP475-flg15, peptide conjugate, lipopeptide BP475 at N-terminus, flg15 at C-terminus] | 12.5 to 25 | 3.1 to 6.2 | 6.2 to 12.5 | 1.6 to 3.1 | 25 to 50 | 3.1 to 6.2 | 1 ± 1.0 | 0 ± 0.2 | 1 ± 0.3 | 1 ± 0.3 | 0.43 ± 0.13 | 1.20 ± 0.23 | 1.23 ± 0.28 | 6.03
